Assay [1] addresses T1, Mitogen-activated protein kinase kinase kinase kinase 3 (Homo sapiens) (UniProt Q8IVH8).
T1 sequence (whole entry): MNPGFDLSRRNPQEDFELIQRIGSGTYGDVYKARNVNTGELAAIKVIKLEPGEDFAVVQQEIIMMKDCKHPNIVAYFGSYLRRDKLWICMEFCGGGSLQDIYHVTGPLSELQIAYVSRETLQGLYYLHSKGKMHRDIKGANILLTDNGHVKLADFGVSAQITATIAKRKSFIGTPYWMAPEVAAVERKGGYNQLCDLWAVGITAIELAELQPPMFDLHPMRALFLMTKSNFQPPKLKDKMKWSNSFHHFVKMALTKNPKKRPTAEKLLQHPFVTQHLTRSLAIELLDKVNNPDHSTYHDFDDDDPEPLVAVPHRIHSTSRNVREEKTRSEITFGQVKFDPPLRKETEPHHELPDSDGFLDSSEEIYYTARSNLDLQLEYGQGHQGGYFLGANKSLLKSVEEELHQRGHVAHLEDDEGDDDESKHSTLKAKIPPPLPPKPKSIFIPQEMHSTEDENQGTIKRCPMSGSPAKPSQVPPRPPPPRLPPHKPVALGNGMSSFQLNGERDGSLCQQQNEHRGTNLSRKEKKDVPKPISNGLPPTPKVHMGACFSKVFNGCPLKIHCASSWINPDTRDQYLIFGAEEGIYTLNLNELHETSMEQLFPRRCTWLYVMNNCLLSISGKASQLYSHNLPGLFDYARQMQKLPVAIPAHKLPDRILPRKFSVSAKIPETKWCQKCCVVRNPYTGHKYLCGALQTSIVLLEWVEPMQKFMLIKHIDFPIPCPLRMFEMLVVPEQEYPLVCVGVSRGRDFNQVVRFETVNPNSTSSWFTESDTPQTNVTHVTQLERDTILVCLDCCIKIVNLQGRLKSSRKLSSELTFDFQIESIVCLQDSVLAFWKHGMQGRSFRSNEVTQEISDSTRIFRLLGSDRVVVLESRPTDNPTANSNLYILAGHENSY
In words: Selectivity interaction (LanthaScreen Eu Kinase Binding Assay) EUB0001632a MAP4K3. The following applies: at 10 µM.

Assay [2] concerns the target Mitogen-activated protein kinase 7 (Homo sapiens) (UniProt Q13164). In words: Selectivity interaction (Rxn Biology Kinase assay) EUB0001632a MAPK7. The following applies: at 10 µM.
In assay [3] the target is Serine/threonine-protein kinase SIK1 (Homo sapiens) (UniProt P57059). In words: Selectivity interaction (KinomeScan (DiscoverX)) EUB0000666a SIK1. The following applies: at 10 µM.
In assay [4] the target is T2, Tyrosine-protein kinase Mer (Homo sapiens) (UniProt Q12866).
T2 sequence (whole entry): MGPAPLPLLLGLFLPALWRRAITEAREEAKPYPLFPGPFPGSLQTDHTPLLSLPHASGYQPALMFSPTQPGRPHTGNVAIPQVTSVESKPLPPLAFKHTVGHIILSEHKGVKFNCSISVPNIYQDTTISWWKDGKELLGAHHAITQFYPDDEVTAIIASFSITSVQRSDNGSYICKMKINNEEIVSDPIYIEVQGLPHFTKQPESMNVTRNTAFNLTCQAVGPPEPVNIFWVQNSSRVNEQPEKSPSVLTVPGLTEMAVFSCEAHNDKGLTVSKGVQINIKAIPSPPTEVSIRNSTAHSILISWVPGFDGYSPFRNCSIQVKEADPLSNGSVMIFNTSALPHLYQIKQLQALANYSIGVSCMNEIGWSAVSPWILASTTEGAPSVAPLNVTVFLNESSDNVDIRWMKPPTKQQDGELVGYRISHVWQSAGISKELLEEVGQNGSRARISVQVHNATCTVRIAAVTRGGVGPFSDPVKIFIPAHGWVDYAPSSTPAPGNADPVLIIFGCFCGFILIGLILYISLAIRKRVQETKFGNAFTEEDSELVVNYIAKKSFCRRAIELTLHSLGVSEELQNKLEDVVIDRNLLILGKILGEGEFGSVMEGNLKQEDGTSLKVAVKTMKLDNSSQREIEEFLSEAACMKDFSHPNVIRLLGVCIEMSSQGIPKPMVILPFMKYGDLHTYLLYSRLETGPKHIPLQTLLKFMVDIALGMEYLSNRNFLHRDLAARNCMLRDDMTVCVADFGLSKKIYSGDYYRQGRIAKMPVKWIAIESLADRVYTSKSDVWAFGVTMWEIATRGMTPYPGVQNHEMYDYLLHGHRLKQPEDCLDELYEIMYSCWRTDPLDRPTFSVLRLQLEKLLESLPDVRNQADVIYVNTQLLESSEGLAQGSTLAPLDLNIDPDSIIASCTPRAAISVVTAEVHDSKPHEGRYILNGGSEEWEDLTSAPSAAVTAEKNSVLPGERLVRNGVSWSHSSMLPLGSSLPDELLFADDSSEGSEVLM
In words: Selectivity interaction (Kinase panel (DSF assay)) EUB0001558a MERTK. (In general: Differential scanning fluorimetry follows unfolding on heating by fluorescence.)

The target in assay [5] is Vascular endothelial growth factor receptor 2 (Homo sapiens, UniProt P35968). In words: Selectivity interaction (KinomeScan (DiscoverX)) EUB0000229b KDR. Conditions: at 10 µM.
Assay [6] addresses Calcium/calmodulin-dependent protein kinase type II subunit delta (Homo sapiens) (UniProt Q13557). In words: Selectivity interaction (KinomeScan (DiscoverX)) EUB0001619a CAMK2D. Conditions: at 1 µM.
The target of assay [7] is T3, Phosphatidylinositol 5-phosphate 4-kinase type-2 beta (Homo sapiens) (UniProt P78356).
T3 sequence (whole entry): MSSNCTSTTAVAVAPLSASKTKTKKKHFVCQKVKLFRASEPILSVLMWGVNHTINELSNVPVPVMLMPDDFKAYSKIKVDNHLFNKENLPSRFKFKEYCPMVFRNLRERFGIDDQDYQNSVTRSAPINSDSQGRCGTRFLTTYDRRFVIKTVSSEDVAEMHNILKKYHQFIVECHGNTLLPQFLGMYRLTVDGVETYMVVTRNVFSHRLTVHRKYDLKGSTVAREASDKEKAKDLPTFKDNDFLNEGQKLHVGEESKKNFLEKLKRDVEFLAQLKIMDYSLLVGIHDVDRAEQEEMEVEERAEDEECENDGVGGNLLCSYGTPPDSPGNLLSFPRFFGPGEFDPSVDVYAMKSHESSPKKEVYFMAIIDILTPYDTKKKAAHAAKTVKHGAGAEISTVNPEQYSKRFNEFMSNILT
In words: Selectivity interaction (KinomeScan (DiscoverX)) EUB0001049a PIP4K2B. The following applies: at 1 µM.

Assay [8] deals with Calcium/calmodulin-dependent protein kinase type II subunit alpha (Homo sapiens, UniProt Q9UQM7). In words: Selectivity interaction (ProQinase) EUB0000171b CAMK2A.
Calcium/calmodulin-dependent protein kinase type II subunit alpha, sequence (Q9UQM7 whole entry): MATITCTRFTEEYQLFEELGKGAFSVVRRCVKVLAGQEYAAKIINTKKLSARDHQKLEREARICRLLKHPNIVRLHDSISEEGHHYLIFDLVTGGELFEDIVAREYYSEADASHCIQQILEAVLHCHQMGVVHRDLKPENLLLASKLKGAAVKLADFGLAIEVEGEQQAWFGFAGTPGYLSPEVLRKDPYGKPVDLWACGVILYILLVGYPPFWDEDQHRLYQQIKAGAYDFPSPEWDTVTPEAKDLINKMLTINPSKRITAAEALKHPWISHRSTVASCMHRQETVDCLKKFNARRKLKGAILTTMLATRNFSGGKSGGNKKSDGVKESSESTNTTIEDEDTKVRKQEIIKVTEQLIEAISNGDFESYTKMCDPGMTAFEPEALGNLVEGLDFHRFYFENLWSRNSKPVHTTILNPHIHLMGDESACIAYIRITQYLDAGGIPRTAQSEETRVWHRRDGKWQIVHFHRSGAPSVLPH

Serine/threonine-protein kinase SIK1 (Homo sapiens), sequence (P57059 whole entry): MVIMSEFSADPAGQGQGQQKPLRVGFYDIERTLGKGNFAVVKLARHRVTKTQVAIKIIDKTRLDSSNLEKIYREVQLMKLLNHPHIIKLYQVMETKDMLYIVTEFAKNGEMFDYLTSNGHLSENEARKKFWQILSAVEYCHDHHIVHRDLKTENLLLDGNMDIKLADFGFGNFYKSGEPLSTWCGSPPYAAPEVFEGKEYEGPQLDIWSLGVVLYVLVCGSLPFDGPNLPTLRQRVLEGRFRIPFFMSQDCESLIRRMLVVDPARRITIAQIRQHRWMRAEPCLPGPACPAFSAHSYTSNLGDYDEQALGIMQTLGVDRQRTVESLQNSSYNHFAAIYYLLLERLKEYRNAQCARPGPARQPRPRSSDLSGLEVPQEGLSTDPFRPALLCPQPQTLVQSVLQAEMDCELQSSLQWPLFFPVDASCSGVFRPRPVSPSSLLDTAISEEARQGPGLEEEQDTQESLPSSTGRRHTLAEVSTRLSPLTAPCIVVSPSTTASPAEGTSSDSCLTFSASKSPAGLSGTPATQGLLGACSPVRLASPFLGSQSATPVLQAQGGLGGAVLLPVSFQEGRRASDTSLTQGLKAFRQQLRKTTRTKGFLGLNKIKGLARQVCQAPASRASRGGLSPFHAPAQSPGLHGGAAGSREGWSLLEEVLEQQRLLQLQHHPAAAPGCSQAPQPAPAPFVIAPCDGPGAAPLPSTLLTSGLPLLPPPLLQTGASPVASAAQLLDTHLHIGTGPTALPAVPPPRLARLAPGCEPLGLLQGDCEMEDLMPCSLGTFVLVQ
Calcium/calmodulin-dependent protein kinase type II subunit delta (Homo sapiens), sequence (Q13557 whole entry): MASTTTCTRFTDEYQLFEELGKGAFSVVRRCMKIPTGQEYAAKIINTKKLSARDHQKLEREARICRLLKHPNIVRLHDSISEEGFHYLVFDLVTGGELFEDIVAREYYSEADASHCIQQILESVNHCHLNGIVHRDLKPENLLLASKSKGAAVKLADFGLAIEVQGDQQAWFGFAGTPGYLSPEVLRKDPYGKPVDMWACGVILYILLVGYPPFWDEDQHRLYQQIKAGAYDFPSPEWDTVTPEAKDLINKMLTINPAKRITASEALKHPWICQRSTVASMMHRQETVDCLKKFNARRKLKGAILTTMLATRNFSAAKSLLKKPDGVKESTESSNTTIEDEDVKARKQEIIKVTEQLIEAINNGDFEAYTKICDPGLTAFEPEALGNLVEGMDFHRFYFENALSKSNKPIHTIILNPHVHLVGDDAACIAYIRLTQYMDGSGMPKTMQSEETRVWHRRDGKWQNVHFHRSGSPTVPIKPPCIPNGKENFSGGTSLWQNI
Mitogen-activated protein kinase 7 (Homo sapiens), sequence (Q13164 2-816 limits assumed): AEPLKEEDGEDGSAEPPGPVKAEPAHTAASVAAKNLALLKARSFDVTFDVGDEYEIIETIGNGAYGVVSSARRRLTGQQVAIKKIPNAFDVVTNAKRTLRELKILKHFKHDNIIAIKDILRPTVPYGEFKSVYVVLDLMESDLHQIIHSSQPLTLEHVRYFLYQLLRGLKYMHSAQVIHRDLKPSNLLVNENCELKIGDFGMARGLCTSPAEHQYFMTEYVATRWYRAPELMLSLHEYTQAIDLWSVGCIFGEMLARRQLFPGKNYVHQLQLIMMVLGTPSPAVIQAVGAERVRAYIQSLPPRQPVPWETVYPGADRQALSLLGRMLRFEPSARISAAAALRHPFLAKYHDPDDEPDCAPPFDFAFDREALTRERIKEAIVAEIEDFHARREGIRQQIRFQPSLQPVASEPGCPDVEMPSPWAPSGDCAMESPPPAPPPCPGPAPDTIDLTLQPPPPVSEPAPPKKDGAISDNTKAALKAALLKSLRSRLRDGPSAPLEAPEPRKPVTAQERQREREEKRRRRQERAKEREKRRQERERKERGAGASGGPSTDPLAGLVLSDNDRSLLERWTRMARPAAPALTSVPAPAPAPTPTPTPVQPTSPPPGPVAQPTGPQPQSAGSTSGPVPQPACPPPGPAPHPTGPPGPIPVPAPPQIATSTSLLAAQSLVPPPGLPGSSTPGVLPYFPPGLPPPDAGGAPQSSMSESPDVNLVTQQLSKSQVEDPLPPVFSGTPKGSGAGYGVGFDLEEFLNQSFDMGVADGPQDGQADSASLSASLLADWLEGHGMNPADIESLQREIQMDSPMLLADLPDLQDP
Vascular endothelial growth factor receptor 2, sequence (P35968 whole entry): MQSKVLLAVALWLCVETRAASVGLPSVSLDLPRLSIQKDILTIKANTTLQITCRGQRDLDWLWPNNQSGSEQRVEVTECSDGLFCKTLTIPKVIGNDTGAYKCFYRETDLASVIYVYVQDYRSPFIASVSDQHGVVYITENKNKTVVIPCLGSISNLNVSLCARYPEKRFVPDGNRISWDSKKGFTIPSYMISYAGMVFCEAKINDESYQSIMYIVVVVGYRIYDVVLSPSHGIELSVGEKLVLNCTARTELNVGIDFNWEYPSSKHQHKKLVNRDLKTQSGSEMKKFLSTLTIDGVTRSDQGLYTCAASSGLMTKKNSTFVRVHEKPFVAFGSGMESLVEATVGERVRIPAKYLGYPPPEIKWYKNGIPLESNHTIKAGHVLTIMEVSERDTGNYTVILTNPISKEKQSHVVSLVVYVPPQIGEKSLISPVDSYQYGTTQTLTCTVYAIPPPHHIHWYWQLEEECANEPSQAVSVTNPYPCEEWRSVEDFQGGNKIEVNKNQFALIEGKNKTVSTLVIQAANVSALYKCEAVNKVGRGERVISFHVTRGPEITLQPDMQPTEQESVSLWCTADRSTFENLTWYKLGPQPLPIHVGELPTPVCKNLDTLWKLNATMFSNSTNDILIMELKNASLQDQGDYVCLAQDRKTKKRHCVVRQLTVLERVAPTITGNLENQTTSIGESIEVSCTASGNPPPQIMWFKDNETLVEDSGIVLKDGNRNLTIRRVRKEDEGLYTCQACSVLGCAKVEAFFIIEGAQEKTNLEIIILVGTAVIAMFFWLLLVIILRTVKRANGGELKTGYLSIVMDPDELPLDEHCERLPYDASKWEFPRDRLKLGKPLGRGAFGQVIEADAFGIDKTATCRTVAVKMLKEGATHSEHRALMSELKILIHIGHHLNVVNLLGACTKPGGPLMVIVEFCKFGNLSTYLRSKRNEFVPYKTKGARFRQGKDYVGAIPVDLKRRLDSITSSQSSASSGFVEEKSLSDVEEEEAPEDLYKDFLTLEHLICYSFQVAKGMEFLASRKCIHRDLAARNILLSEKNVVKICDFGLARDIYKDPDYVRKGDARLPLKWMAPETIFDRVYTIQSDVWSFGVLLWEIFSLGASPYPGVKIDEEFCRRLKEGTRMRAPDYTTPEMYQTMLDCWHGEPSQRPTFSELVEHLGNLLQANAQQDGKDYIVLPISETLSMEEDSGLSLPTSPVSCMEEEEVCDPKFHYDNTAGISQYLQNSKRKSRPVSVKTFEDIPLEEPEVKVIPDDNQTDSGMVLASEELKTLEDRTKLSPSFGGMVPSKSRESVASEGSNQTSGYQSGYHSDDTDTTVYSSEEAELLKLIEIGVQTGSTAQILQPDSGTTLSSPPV

For the compound `Cn1cc(-n2cnc3c(NCc4nc5cc(Cl)c(Cl)cc5[nH]4)nc(N4CCOCC4)nc32)cn1`, the values for the % of inhibition in assay [1] and in assay [2] were -14.8% and -29.8%, respectively.

Regarding `O=C(NOC[C@H](O)CO)c1ccc(F)c(F)c1Nc1ccc(I)cc1F`, the % of control in assay [3] came to 100%.

Turning to `CC(C)(O)[C@H](F)CN1Cc2cc(NC(=O)c3cnn4cccnc34)c(N3CCOCC3)cc2C1=O`, the dTM in assay [4] was determined as 1.7 K.

As for `COc1cc(N(C)c2ccnc3ccc(C(F)(F)F)cc23)cc(OC)c1OC`, in assay [5], the % binding worked out at 85%.

On to `N#Cc1cccc(-c2c[nH]c3ncnc(N4CCOCC4)c23)c1`, for which the % of control in assay [6] amounted to 80%.

As to `COc1cc(Nc2nc(C)cc(-c3cnn4nc(OC)ccc34)n2)cc(C(F)(F)F)c1`, the % of control in assay [7] was found to be 96%.

As to `C=CC(=O)Nc1cccc(C(=O)Nc2ccc(Nc3cc(-c4[nH]c(SC)nc4C)ccn3)cc2)c1`, the % of control in assay [8] (at 1 µM) and in assay [8] (at 5 µM) was 90% throughout.

The record behind these values is ChEMBL document CHEMBL5465560, “Selectivity Literature for EUbOPEN Chemogenomic Library” (2024).
